Experimental data from the supplement of paper PMC8253809.

Legend:
[1] = test system: HGGX6 (H3.3 G34R paediatric high-grade glioma line); assay: growth inhibition relative to DMSO (0) and positive control (1) (fraction); higher = more growth inhibition
In short: (§1)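 Paediatric high-grade glioma (pHGG) cell lines and astrocytes were seeded on Geltrex-coated 384-well plates and exposed for 7 days to a two-drug dose matrix in two plate orientations. CellTiter-Glo luminescence was scaled, without log2 transformation, so that solvent wells equal 0 and positive-control wells equal 1. Values are expressed as fractional activity and served as input for response-surface synergy modelling. Single-agent values come from the one-drug arms of those same matrix plates.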

[2] = test system: iASTRO (astrocyte control); assay: as above
In short: as §1

O=C(NOC[C@H](O)CO)c1ccc(F)c(F)c1Nc1ccc(I)cc1F + CC1(C)OCCn2c1nc1c(N3CCOCC3)nc(-c3cnc(N)nc3)nc12 [GDC0084]
growth inhibition
Settings | compound 1 concentration 0.009766 µM | compound 1 concentration 0.01953 µM | compound 1 concentration 0.03906 µM | compound 1 concentration 0.07812 µM | compound 1 concentration 0.15625 µM | compound 1 concentration 0.3125 µM | compound 1 concentration 0.625 µM | compound 1 concentration 1.25 µM | compound 1 concentration 5 µM | compound 1 concentration 20 µM
[1], compound 2 concentration 0.03906 µM | -0.0587 | -0.133 | -0.0423 | -0.0209 | 0.0525 | 0.0544 | 0.136 | 0.172 | 0.433 | 0.608
[1], compound 2 concentration 0.07812 µM | 0.159 | 0.159 | 0.235 | 0.123 | 0.215 | 0.239 | 0.175 | 0.334 | 0.493 | 0.707
[1], compound 2 concentration 0.15625 µM | 0.0791 | 0.129 | 0.0602 | 0.134 | 0.0901 | 0.167 | 0.22 | 0.321 | 0.536 | 0.68
[1], compound 2 concentration 0.3125 µM | 0.217 | 0.19 | 0.195 | 0.14 | 0.172 | 0.319 | 0.322 | 0.391 | 0.572 | 0.713
[1], compound 2 concentration 0.625 µM | 0.371 | 0.37 | 0.329 | 0.373 | 0.258 | 0.373 | 0.432 | 0.457 | 0.633 | 0.748
[1], compound 2 concentration 1.25 µM | 0.572 | 0.523 | 0.53 | 0.483 | 0.467 | 0.501 | 0.53 | 0.544 | 0.679 | 0.799
[1], compound 2 concentration 5 µM | 0.709 | 0.727 | 0.714 | 0.72 | 0.705 | 0.725 | 0.719 | 0.747 | 0.798 | 0.86
[1], compound 2 concentration 20 µM | 0.867 | 0.859 | 0.851 | 0.861 | 0.86 | 0.852 | 0.866 | 0.859 | 0.887 | 0.947
[2], compound 2 concentration 0.03906 µM | 0.0351 | 0.072 | 0.0628 | 0.082 | 0.097 | 0.097 | 0.102 | 0.0401 | -0.0539 | -0.0303
[2], compound 2 concentration 0.07812 µM | 0.0868 | 0.0655 | 0.0861 | 0.0688 | 0.093 | 0.134 | 0.15 | 0.0961 | 0.0858 | 0.0424
[2], compound 2 concentration 0.15625 µM | 0.123 | 0.128 | 0.113 | 0.0769 | 0.0999 | 0.115 | 0.0997 | 0.104 | 0.0381 | 0.0629
[2], compound 2 concentration 0.3125 µM | 0.0584 | 0.0952 | 0.0549 | 0.0979 | 0.0838 | 0.126 | 0.158 | 0.146 | 0.164 | 0.196
[2], compound 2 concentration 0.625 µM | 0.0444 | 0.0912 | 0.0357 | 0.0123 | 0.112 | 0.148 | 0.303 | 0.443 | 0.516 | 0.588
[2], compound 2 concentration 1.25 µM | 0.21 | 0.214 | 0.279 | 0.319 | 0.44 | 0.568 | 0.731 | 0.784 | 0.811 | 0.836
[2], compound 2 concentration 5 µM | 0.756 | 0.777 | 0.798 | 0.811 | 0.83 | 0.858 | 0.875 | 0.887 | 0.901 | 0.887
[2], compound 2 concentration 20 µM | 0.822 | 0.806 | 0.821 | 0.841 | 0.849 | 0.873 | 0.889 | 0.901 | 0.9 | 0.909

CC1(C)OCCn2c1nc1c(N3CCOCC3)nc(-c3cnc(N)nc3)nc12 [GDC0084] + O=C(NOC[C@H](O)CO)c1ccc(F)c(F)c1Nc1ccc(I)cc1F [PD0325901]
growth inhibition
Settings | compound 1 concentration 0.009766 µM | compound 1 concentration 0.01953 µM | compound 1 concentration 0.03906 µM | compound 1 concentration 0.07812 µM | compound 1 concentration 0.15625 µM | compound 1 concentration 0.3125 µM | compound 1 concentration 0.625 µM | compound 1 concentration 1.25 µM | compound 1 concentration 5 µM | compound 1 concentration 20 µM
[1], compound 2 concentration 0.03906 µM | -0.0592 | -0.118 | -0.0557 | 0.0473 | 0.0152 | 0.16 | 0.251 | 0.451 | 0.708 | 0.857
[1], compound 2 concentration 0.07812 µM | 0.064 | -0.018 | -0.00542 | 0.0583 | 0.162 | 0.132 | 0.254 | 0.475 | 0.717 | 0.883
[1], compound 2 concentration 0.15625 µM | 0.0118 | 0.0255 | -0.000602 | 0.014 | 0.0815 | 0.2 | 0.302 | 0.466 | 0.711 | 0.857
[1], compound 2 concentration 0.3125 µM | 0.0282 | 0.112 | 0.0905 | 0.102 | 0.124 | 0.205 | 0.31 | 0.505 | 0.707 | 0.865
[1], compound 2 concentration 0.625 µM | 0.155 | 0.263 | 0.16 | 0.217 | 0.212 | 0.336 | 0.371 | 0.511 | 0.733 | 0.849
[1], compound 2 concentration 1.25 µM | 0.226 | 0.235 | 0.284 | 0.245 | 0.295 | 0.368 | 0.424 | 0.564 | 0.776 | 0.841
[1], compound 2 concentration 5 µM | 0.429 | 0.43 | 0.452 | 0.47 | 0.569 | 0.626 | 0.645 | 0.728 | 0.796 | 0.901
[1], compound 2 concentration 20 µM | 0.595 | 0.612 | 0.628 | 0.661 | 0.667 | 0.729 | 0.762 | 0.814 | 0.871 | 0.94
[2], compound 2 concentration 0.03906 µM | 0.09 | 0.0454 | 0.118 | 0.094 | 0.0396 | 0.0144 | -0.00856 | 0.184 | 0.758 | 0.807
[2], compound 2 concentration 0.07812 µM | 0.121 | 0.0878 | 0.134 | 0.118 | 0.109 | 0.12 | 0.0894 | 0.264 | 0.802 | 0.813
[2], compound 2 concentration 0.15625 µM | 0.0937 | 0.147 | 0.167 | 0.0963 | 0.0973 | 0.0664 | 0.0992 | 0.309 | 0.815 | 0.825
[2], compound 2 concentration 0.3125 µM | 0.149 | 0.11 | 0.135 | 0.176 | 0.144 | 0.0844 | 0.154 | 0.446 | 0.833 | 0.846
[2], compound 2 concentration 0.625 µM | 0.15 | 0.125 | 0.146 | 0.159 | 0.128 | 0.129 | 0.317 | 0.675 | 0.878 | 0.884
[2], compound 2 concentration 1.25 µM | 0.155 | 0.123 | 0.103 | 0.0682 | 0.108 | 0.207 | 0.459 | 0.766 | 0.878 | 0.893
[2], compound 2 concentration 5 µM | 0.108 | 0.0234 | 0.0231 | 0.0442 | 0.0662 | 0.219 | 0.546 | 0.791 | 0.875 | 0.891
[2], compound 2 concentration 20 µM | 0.14 | 0.0807 | 0.0709 | 0.0677 | 0.0926 | 0.24 | 0.627 | 0.821 | 0.881 | 0.902
